Source: ChEMBL document CHEMBL1201862, “PubChem BioAssay data set” (2004)
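96-well plates; 48 h exposure; 5 concentrations. Endpoints by linear interpolation between flanking doses. Not reached: highest tested concentration assigned. GI50 marks 50% less growth.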 Calls of active or inactive are those of the source. No stated cut-off is given here; in the data, active = GI50 up to about 1.1 µM and inactive = higher.

Legend:
Assay in all cases: growth of human tumour cells (NCI), 48 h
RXF 393 = tested on: RXF 393
A498 = tested on: A498
IGROV-1 = tested on: IGROV-1
NCI-H226 = tested on: NCI-H226
HT-29 = tested on: HT-29
UO-31 = tested on: UO-31
M14 = tested on: M14
SW-620 = tested on: SW-620
KM12 = tested on: KM12
MOLT-4 = tested on: MOLT-4
SF-295 = tested on: SF-295
COLO 205 = tested on: COLO 205
SF-268 = tested on: SF-268
HCT-116 = tested on: HCT-116
MCF7 = tested on: MCF7
PC-3 = tested on: PC-3
NCI/ADR-RES = tested on: NCI/ADR-RES
UACC-62 = tested on: UACC-62
SK-MEL-28 = tested on: SK-MEL-28
HOP-92 = tested on: HOP-92

SMILES | GI50 (RXF 393) | GI50 (A498) | GI50 (IGROV-1) | GI50 (NCI-H226) | GI50 (HT-29) | GI50 (UO-31) | GI50 (M14) | GI50 (SW-620) | GI50 (KM12) | GI50 (MOLT-4) | GI50 (SF-295) | GI50 (COLO 205) | GI50 (SF-268) | GI50 (HCT-116) | GI50 (MCF7) | GI50 (PC-3) | GI50 (NCI/ADR-RES) | GI50 (UACC-62) | GI50 (SK-MEL-28) | GI50 (HOP-92)
C=C1C(=O)C([Si](C)(C)C)=C2C=C(C)C3(CC3)C12C (stereo not drawn) | 15.3 µM (inactive) | 31 µM (inactive) | 25.2 µM (inactive) | 32 µM (inactive) | 18.2 µM (inactive) | 43.8 µM (inactive) | 39.8 µM (inactive) | 59.7 µM (inactive) | 38.3 µM (inactive) | 1.12 µM (inactive) | 30.4 µM (inactive) | 14.2 µM (inactive) | 53.2 µM (inactive) | 37.5 µM (inactive) | 18.6 µM (inactive) | 3.36 µM (inactive) | 13.7 µM (inactive) | 14.7 µM (inactive) | 58.1 µM (inactive) | –
O=C(Nc1ccccc1F)c1cc2ccc(O)cc2o/c1=N\c1ccccc1F | – | – | 2.23 µM (inactive) | – | 17.2 µM (inactive) | 1.93 µM (inactive) | 2.55 µM (inactive) | 2.88 µM (inactive) | 1.98 µM (inactive) | 1.74 µM (inactive) | 2.84 µM (inactive) | 21.8 µM (inactive) | 2.27 µM (inactive) | 2.06 µM (inactive) | 3.2 µM (inactive) | 2.58 µM (inactive) | 2.42 µM (inactive) | 2.37 µM (inactive) | 2.45 µM (inactive) | –
CCSc1[nH]c(NC(=S)NC(=O)c2ccccc2Cl)c(C(N)=O)c1C(N)=O | 4.2 µM (inactive) | – | > 10 µM (inactive) | – | > 10 µM (inactive) | – | > 10 µM (inactive) | > 10 µM (inactive) | > 10 µM (inactive) | > 10 µM (inactive) | > 10 µM (inactive) | > 10 µM (inactive) | > 10 µM (inactive) | – | > 10 µM (inactive) | > 10 µM (inactive) | – | > 10 µM (inactive) | > 10 µM (inactive) | > 10 µM (inactive)
CC1(C)Oc2ccc3c(=O)c4ccccc4oc3c2C1C(=O)O (stereo not drawn) | > 100 µM (inactive) | > 100 µM (inactive) | > 100 µM (inactive) | > 100 µM (inactive) | > 100 µM (inactive) | – | > 100 µM (inactive) | – | – | > 100 µM (inactive) | > 100 µM (inactive) | > 100 µM (inactive) | > 100 µM (inactive) | > 100 µM (inactive) | > 100 µM (inactive) | > 100 µM (inactive) | > 100 µM (inactive) | > 100 µM (inactive) | – | –
COc1ccc(N2C(=O)/C(=C\c3cccc(Oc4ccccc4)c3)SC2c2ccccc2)cc1 (stereo not drawn) | 8.59 µM (inactive) | > 100 µM (inactive) | – | > 100 µM (inactive) | – | 37.4 µM (inactive) | 49.7 µM (inactive) | 32.9 µM (inactive) | 45 µM (inactive) | 26.7 µM (inactive) | 60 µM (inactive) | 66.8 µM (inactive) | 33.2 µM (inactive) | 25.4 µM (inactive) | 29.9 µM (inactive) | – | 42.5 µM (inactive) | 50.2 µM (inactive) | 38.1 µM (inactive) | 28.2 µM (inactive)
CCOC(=O)C1(C/C=C/CBr)CCc2ccccc2C1=O (stereo not drawn) | 6.03 µM (inactive) | 18.5 µM (inactive) | 11.1 µM (inactive) | 6.95 µM (inactive) | 21.9 µM (inactive) | 14.3 µM (inactive) | 13.1 µM (inactive) | 14.5 µM (inactive) | 15.5 µM (inactive) | 9.1 µM (inactive) | 17.3 µM (inactive) | 17.2 µM (inactive) | 18.5 µM (inactive) | 13.3 µM (inactive) | 7.89 µM (inactive) | 15.7 µM (inactive) | 22 µM (inactive) | 10.6 µM (inactive) | 17.5 µM (inactive) | –
CCOC(=O)/C(=C\NC(C)(C)C)c1nc2ccccc2o1 | 24.7 µM (inactive) | 27.9 µM (inactive) | 51.9 µM (inactive) | 20.9 µM (inactive) | 27.7 µM (inactive) | 0.124 µM (active) | 48 µM (inactive) | 49.7 µM (inactive) | 33.3 µM (inactive) | – | 34 µM (inactive) | 21.3 µM (inactive) | 37.8 µM (inactive) | 37.3 µM (inactive) | 29.3 µM (inactive) | – | 35.6 µM (inactive) | 18.4 µM (inactive) | 36.5 µM (inactive) | 33.5 µM (inactive)
C(=C\c1ccco1)/c1cccc(/C=C/c2ccco2)n1 | > 50 µM (inactive) | > 50 µM (inactive) | > 50 µM (inactive) | > 50 µM (inactive) | > 50 µM (inactive) | > 50 µM (inactive) | > 50 µM (inactive) | > 50 µM (inactive) | > 50 µM (inactive) | > 50 µM (inactive) | > 50 µM (inactive) | > 50 µM (inactive) | > 50 µM (inactive) | > 50 µM (inactive) | 0.283 µM (active) | – | > 50 µM (inactive) | > 50 µM (inactive) | > 50 µM (inactive) | > 50 µM (inactive)
